Measured values from US20040110756A1, “New anthracene derivatives and their use as pharmaceutical preparations” (priority 2002, published 2004).
Converted amounts (≈) assume the structure as drawn. Where two headings read alike, the source gives them in different places.

How the values were obtained:
Format in all cases: cell-based
[1] = test system: human cervix carcinoma cell line KB/HeLa; test: XTT proliferation assay, KB/HeLa; conditions: KB/HeLa cells, 45 hours incubation
From the text: (§1) The substance of Example 2 was investigated in a proliferation test on established tumor cell lines for its anti-proliferative activity. The test used determines the cellular dehydrogenase activity and enables the cell vitality and, indirectly, the cell count to be determined. The cell lines used are the human cervix carcinoma cell line KB/HeLa (ATCC CCL17), the ovarian adenocarcinoma cell line SKOV-3 (ATCC HTB77), the human glioblastoma cell line SF-268 (NCI 503138) and the lung carcinoma cell line NCI-H460 (NCI 503473). Moreover, for investigating the effect of the substance specifically on the cell cycle, an RKOp27 cell system was used (M. Schmidt et al. Oncogene 19(20):2423-9, 2000). […]
(§2) The adherent, growing tumor cell lines KB/HeLa, SKOV-3, SF-268, NCI-H460, ASPC1, A172, A431, A549, DU145, C6, MDAMB435, HT29, PC3, T47D, U118MG and U373MG were cultured under standard conditions in the gassing incubator at 37° C., 5% CO2 and 95% relative humidity. […] Subsequently, the cell plates were incubated for a further 3 hours in a gassing incubator and the optical density (OD490 nm) was determined in the photometer. The percentage inhibition, relative to the control, is determined by means of the OD490 nm and plotted semi-logarithmically in the form of a concentration vs. activity curve. […]

[2] = test system: human colon adenocarcinoma cell line HT 29; test: XTT proliferation assay, HT29; conditions: HT29 cells, average of two independent experiments
From the text: (§3) For further characterization, substance 2 was investigated for its anti-proliferative effect using a panel of 12 human tumor cell lines. The cell lines used were the human glioma cell lines A172 (ATCC CRL-1620), U118 (ATCC HTB-15) and U373 (ATCC HTB-17), the rat glioma cell line C6 (ATCC CCL-107), the human lung carcinoma cell line A549, the human epidermoid carcinoma A431 (ATCC CRL-2592), the human prostate cancer cell lines DU145 (ATCC HTB-81) and PC3 (ATCC CRL-1435), the human colon adenocarcinoma cell line HT 29 (ATCC HTB-38), the human pancreas adenocarcinoma cell line ASPC1 (ATCC CRL-1682) and the human breast cancer cell lines T47D (ECACC 88062428) and MCAMB435 (NCI 914182). […]
as §2

[3] = test system: lung carcinoma cell line NCI-H460; test: XTT proliferation assay, NCI-H460; conditions: Homo sapiens; NCI-H460 cells, 45 hours incubation
From the text: as §1, §2

[4] = test system: human glioblastoma cell line SF-268; test: XTT proliferation assay, SF-268; conditions: SF-268 cells, 45 hours incubation
From the text: as §1, §2

rat glioma cell line C6 = test: XTT proliferation assay, C6; conditions: C6 rat glioma cells, average of two independent experiments
From the text: as §3, §2

[5] = test system: human breast cancer cell line T47D; test: XTT proliferation assay, T47D; conditions: T47D cells, average of two independent experiments
From the text: as §3, §2

[6] = test system: human prostate cancer cell line PC3; test: XTT proliferation assay, PC3; conditions: PC-3, PC3 cells, average of two independent experiments
From the text: as §3, §2

[7] = test system: human glioma cell line A172; test: XTT proliferation assay, A172; conditions: A 172, A172 cells, average of two independent experiments
From the text: as §3, §2

[8] = test system: human glioma cell line U118; test: XTT proliferation assay, U118MG; conditions: U-118-MG, U118MG cells, average of two independent experiments
From the text: as §3, §2

[9] = test system: human breast cancer cell line MDA MB435; test: XTT proliferation assay, MDA MB435; conditions: MDA-MB-435, MDA MB435 cells, average of two independent experiments
From the text: as §3, §2

[10] = test system: human lung carcinoma cell line A549; test: XTT proliferation assay, A549; conditions: A549 cells, average of two independent experiments
From the text: as §3, §2

[11] = test system: human pancreas adenocarcinoma cell line ASPC1; test: XTT proliferation assay, ASPC1; conditions: ASPC1 cells, average of two independent experiments
From the text: as §3, §2

[12] = test system: human epidermoid carcinoma A431; test: XTT proliferation assay, A431; conditions: A-431, A431 cells, average of two independent experiments
From the text: as §3, §2

[13] = test system: ovarian adenocarcinoma cell line SKOV-3; test: XTT proliferation assay, SKOV-3; conditions: Homo sapiens, SK-OV-3; SKOV-3 cells, 45 hours incubation
From the text: as §1, §2

[14] = test system: RKOp27 human colon carcinoma cells; test: Cell cycle analysis by means of the RKOp27 model (XTT); conditions: for EC50: Homo sapiens, RKOp27, 45 h
From the text: The substance of Example 2 was investigated in a proliferation test on established tumor cell lines for its anti-proliferative activity. The test used determines the cellular dehydrogenase activity and enables the cell vitality and, indirectly, the cell count to be determined. The cell lines used are the human cervix carcinoma cell line KB/HeLa (ATCC CCL17), the ovarian adenocarcinoma cell line SKOV-3 (ATCC HTB77), the human glioblastoma cell line SF-268 (NCI 503138) and the lung carcinoma cell line NCI-H460 (NCI 503473). Moreover, for investigating the effect of the substance specifically on the cell cycle, an RKOp27 cell system was used (M. Schmidt et al. Oncogene 19(20):2423-9, 2000). The RKO is a human colon carcinoma line, in which the cell cycle inhibitor p27^kip1 was expressed by means of the Ecdyson Expression System and can be brought to a cell cycle arrest in G2. A substance of nonspecific activity inhibits the proliferation independently of whether the RKO cell is or is not arrested in G1 or G2. On the other hand, cell cycle specific substances, such as tubulin inhibitors, are cytotoxic only when the cells are not arrested and passed through the cell cycle. In Table 2, the cytotoxic or growth-inhibiting activity of the compound described is shown with and without expression of p27^kip1.
as §2, with “curve. The EC50 is calculated from the concentration-activity curve by means of a regression analysis, using the Graphpad Prism program” for “curve.”

[15] = test system: human glioma cell line U373; test: XTT proliferation assay, U373MG; conditions: U373 MG, U373MG cells, average of two independent experiments
From the text: as §3, §2

[16] = test system: human prostate cancer cell line DU145; test: XTT proliferation assay, DU145; conditions: DU-145, DU145 cells, average of two independent experiments
From the text: as §3, §2

Compound: COc1cc(OC)cc(N2CCN(C(=O)c3c4ccccc4cc4ccccc34)CC2)c1 [Example 2, Anthracene-9-yl-[4-(3,5-dimethoxy-phenyl)-piperazine-1-yl]-methanone]
- EC50 [1]: 0.048 µg/mL (≈ 0.113 µM)
- EC50 [2]: 0.061 µg/mL (≈ 0.143 µM)
- EC50 [3]: 0.054 µg/mL (≈ 0.127 µM)
- EC50 [4]: 0.043 µg/mL (≈ 0.101 µM)
- EC50 (rat glioma cell line C6): 0.17 µg/mL (≈ 0.399 µM)
- EC50 [5]: 0.022 µg/mL (≈ 0.0516 µM)
- EC50 [6]: 0.049 µg/mL (≈ 0.115 µM)
- EC50 [7]: 0.046 µg/mL (≈ 0.108 µM)
- EC50 [8]: 0.059 µg/mL (≈ 0.138 µM)
- EC50 [9]: 0.054 µg/mL (≈ 0.127 µM)
- EC50 [10]: 0.066 µg/mL (≈ 0.155 µM)
- EC50 [11]: 0.11 µg/mL (≈ 0.258 µM)
- EC50 [12]: 0.044 µg/mL (≈ 0.103 µM)
- EC50 [13]: 0.047 µg/mL (≈ 0.11 µM)
- EC50 ([14]; read-out: XTT Proliferation Assay, EC50 RKOP27): 0.058 µg/mL (≈ 0.136 µM)
- EC50 ([14]; read-out: XTT Proliferation Assay, EC50 RKOP27 ind.): > 3.16 µg/mL
- cytotoxic activity in the induced state of p27kip1 ([14]; RKOp27 cells, p27kip1 induced): did not show any cytotoxic activity
- EC50 [15]: 0.057 µg/mL (≈ 0.134 µM)
- EC50 [16]: 0.045 µg/mL (≈ 0.106 µM)
